In patent publication EP2364976B1, “S1P receptor modulating compounds and use thereof” (EPIX Pharmaceuticals, Inc., priority 2007, dated 2007) one finds EC50 data, which are given here for 27 molecules.

Where “and” joins values, the source holds several entries; their conditions need not be identical. Equal values may be shown once.

As a reminder, the EC50 is the concentration that produces a half-maximal response.

T1 sequence (P21453 whole entry): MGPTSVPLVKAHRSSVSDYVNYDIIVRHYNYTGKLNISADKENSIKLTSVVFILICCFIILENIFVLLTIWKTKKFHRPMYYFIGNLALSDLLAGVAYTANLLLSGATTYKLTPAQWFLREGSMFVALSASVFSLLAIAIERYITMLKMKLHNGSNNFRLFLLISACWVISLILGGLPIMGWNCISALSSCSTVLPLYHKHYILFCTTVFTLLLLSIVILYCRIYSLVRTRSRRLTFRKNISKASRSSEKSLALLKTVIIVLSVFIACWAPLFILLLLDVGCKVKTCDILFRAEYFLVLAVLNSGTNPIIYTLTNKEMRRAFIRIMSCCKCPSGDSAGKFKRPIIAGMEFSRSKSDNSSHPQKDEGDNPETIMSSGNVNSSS

This experiment concerns the target T1, hS1P1 (Homo sapiens, UniProt P21453).
T1 construct: expressed in transfected cells
Description: hS1P1 EC50 (S1P receptor Ca2+ flux protocol, FLIPR, CHO K1 Gqi5 cells). It counts as cell-based. To be noted: several values per compound = repeat determinations as printed. The protocol: S1P receptor activity may also be measured by an SIP receptor (e.g., hS1P1, hS1P3, rS1P1, rS1P3 and parental cell) Ca^2+ Flux protocol as described below: • 1. Material • a. FLIPR buffer: 1x HBSS; 10mM HEPES • b. Cell growth media: • i. human and rat S1P1 and S1P3: F12-Ham's media; 10% FBS (qualified); 1x Pen/Strep/Glu; 300ug/mL Hygromycin; 400ug/mL Geneticin ii. Parental cell: human and rat S1P and S1P3: F12-Ham's media; 10% FBS (qualified); 1x Pen/Strep/Glu; 300ug/mL Hygromycin; • c. Cell seeding media; F12-Ham's media; 10% FBS (Charcoal/dextran stripped); 1x Pen/Strep/Glu; • d. Cell dissociation buffer: Versene from Invitrogen • e. Agonist (SIP) dissolving buffer: 0.4% (w/v) fatty-acid free BSA (Sigma # A8806) in FLIPR buffer • f. FLIPR dye: BD PBX Calcium assay kit; Cat#641077 is composed of Calcium indicator (Cat#850000) and 100x PBX signal enhancer (cat#850001). The 100x PBX signal enhancer is diluted into FLIPR buffer 1:100 and the calcium indicator is then added at 1:1000 ratio. • g. Cell plates (96-well): Greiner Cat#655090 • h. Compound plates (96-well): Costar #3365 • i. S1P stock solution preparation: S1P is purchased from CalBioChem (Catalog # 970471; 1mg vial; custom prep using methanol, & nitrogen gas drying inside glass vial; Storage @ -20°C). Dissolve 1 vial of SIP into 26.4ml of agonist dissolving buffer in a 50ml centrifuge tube; Remove label from bottle of SIP, open and drop entire bottle into tube. Sonicate at 37° for ½ hour. Clear solution of 100µM will result. This stock solution is aliquoted and stored at -80C • 2. Cell line maintenance • a. V5 tags were added at the N-terminus of hS1P1, hS1P3, rS1P1 and rS1P3. All four genes were transfected into CHO K1 cells which stably express Gqi5. • b. hS1P1 and hS1P3 were established as stable clones and rS1P1 and rS1P3 were sorted by anti V5 tag and established as stable pools after sorting. • c. Parental cell line CHO/K1 Gqi5 is used as the control. • d. All the cells are maintained in cell growth media and splitted twice a week using Versene. • e. All the cell lines are used under passage 30. • 3. Assay protocol • a. Cell seeding: Cells are lifted from the flask by Versene and seeded in cell plates at 50K/well in cell seeding media. Cells are grown overnight at 37 degree. • b. Cell loading: Cell seeding media is discarded. Cells are loaded with 50ul of FLIPR dye at RT for 90 min. Signal is stable for up to 5 h after dye loading. • c. Agonist (S1P) preparation: Frozen stock of S1P is thawed out and sonicated at 37c for 30 minutes every time before use. The stock is then diluted into FLIPR buffer at proper concentration. • d. Compound preparation: Compounds are dissolved in DMSO. A 3x, 10 point dilution of the compounds are carried out in DMSO. Then the compounds are diluted into assay buffer133x so that the DMSO concentration is 0.75%. • e. Activity measurement: The fluorescence signal change of the cells upon compound addition is monitored in FLIPRtetra. 25ul of compound is transferred into the cell plates (50ul of FLIPR dye; DMSO concentration: 0.25%). Signal is recorded for 90sec after compound addition. Then 50ul of 500nM SIP is added in the cell plate, and signal is recorded for 90 seconds upon addition. • 4. Data analysis • a. Peak value is calculated for each compound/S1P addition • b. The peak value of S1P at 200nM is used as high control (100%), and the peak value of buffer only is used as low control (0%). • c. Data is normalized against high and low controls using the following equation: POC_S = 100*(RAW-LO)/(HI-LO) [formula] • d. Peak value is plotted against the concentration of compound. • e. Curve is fitted using the 4 parameter fit: Y = (A+(B/(1+(((x/C))^(∧)D)))) [formula] where: Y is POC_S (or POC) • X is compound concentration • A is the minimum (EC50min or IC50min) • B is the maxmum (EC50max or IC50max) • C is the inflection point (EC50IP or IC50IP) • D is the hill slope (EC50 slope or IC50 slope).
Background: A change in cytosolic calcium serves as a functional read-out for many receptors and channels.
Take `O=C(O)C1CN(Cc2ccc(-c3cc4cc(C5CCCCC5)ccc4o3)c(F)c2)C1` [Reference Compound 27]: the EC50 is 0.16 µM and 0.361 µM.
As for `O=C(O)C1CN(Cc2ccc(-c3cc4cc(-c5cccs5)ccc4o3)cc2)C1` [Reference Compound 28, 1-((4-(5-(thiophen-2-yl)benzofuran-2-yl)phenyl)methyl)azetidine-3-carboxylic acid], the figure is 1.8 µM.
For the molecule `O=C(O)CCN1CCc2cc(-c3cc4cc(Cc5ccccc5)ccc4o3)ccc2C1` [Reference Compound 29, 3-(6-(5-benzylbenzofuran-2-yl)-3,4-dihydroisoquinolin-2(1H)-yl)propanoic acid], the EC50 is 0.16 µM and 0.261 µM.
For the molecule `O=C(O)C1CN(Cc2ccc(-c3cc4cc(C5CCCC5)ccc4o3)cc2)C1` [Reference Compound 30, 1-(4-(5-cyclopentylbenzofuran-2-yl)benzyl)azetidine-3-carboxylic acid], the EC50 was 0.21 µM.
For `O=C(O)C1CN(Cc2ccc(-c3cc4cc(N5CCCCC5)ccc4o3)c(F)c2)C1` [Reference Compound 31, 1-(3-fluoro-4-(5-(piperidin-1-yl)benzofuran-2-yl)benzyl)azetidine-3-carboxylic acid], the EC50 is 0.86 µM and 0.307 µM.
Then `O=C(O)C1CN(Cc2ccc(-c3cc4cc(Cc5ccccc5)ccc4o3)nc2)C1` [Reference Compound 32, 1-((6-(5-benzylbenzofuran-2-yl)pyridin-3-yl)methyl)azetidine-3-carboxylic acid], with 2.6 µM and 0.516 µM; and `COc1cc(CN2CC(C(=O)O)C2)ccc1-c1cc2cc(Cc3ccccc3)ccc2o1` [Reference Compound 33, 1-((4-(5-benzylbenzofuran-2-yl)-3-methoxyphenyl)methyl)azetidine-3-carboxylic acid], with 1 µM and 1.9 µM and 0.196 µM.
As to `O=C(O)C1CN(Cc2ccc(-c3cc4cc(N5CCCCC5)ccc4o3)cc2)C1` [Reference Compound 34, 1-(4-(5-(piperidin-1-yl)benzofuran-2-yl)benzyl)azetidine-3-carboxylic acid], a half-maximal response (EC50) required 1.5 µM.
For `O=C(O)C1CN(Cc2ccc(-c3cc4cc(Cc5ccccc5)ccc4o3)c(Cl)c2)C1` [Reference Compound 36, 1-((4-(5-benzylbenzofuran-2-yl)-3-chlorophenyl)methyl)azetidine-3-carboxylic acid], the EC50 was 0.199 µM.
`O=C(O)CCN1CCc2cc(-c3cc4cc(C5CCCC5)ccc4o3)ccc2C1` [Reference Compound 37, 3-(6-(5-cyclopentylbenzofuran-2-yl)-3,4-dihydroisoquinolin-2(1H)-yl)propanoic acid] had an EC50 of 4.17 µM.
As for `O=C(O)C1CN(Cc2ccc(-c3cc4cc(OCC5CCCC5)ccc4o3)c(F)c2)C1` [Reference Compound 38, 1-(4-(5-(cyclopentylmethoxy)benzofuran-2-yl)-3-fluorobenzyl)azetidine-3-carboxylic acid], the figure is 0.803 µM.
As to `Cc1cc(CN2CC(C(=O)O)C2)ccc1-c1cc2cc(Cc3ccccc3)ccc2o1` [Reference Compound 43, 1-((4-(5-Benzylbenzofuran-2-yl)-3-methylphenyl)methyl)azetidine-3-carboxylic acid], the EC50 was 0.241 µM.
Take `CCCCOc1ccc2oc(-c3ccc4c(c3)CCN(CCC(=O)O)C4)cc2c1` [Reference Compound 44, 3-(6-(5-butoxybenzofuran-2-yl)-3,4-dihydroisoquinolin-2(1H)-yl)propanoic acid]: the EC50 was 4.44 µM.
With `O=C(O)CCNC1Cc2ccc(-c3cc4cc(Cc5ccccc5)ccc4o3)cc2C1` (stereo not drawn) [Reference Compound 45, 3-(5-(5-benzylbenzofuran-2-yl)-2,3-dihydro-1H-inden-2-ylamino)-propanoic acid], a half-maximal effect (EC50) was put at 0.807 µM.
Take `COc1cc(CN2CC(C(=O)O)C2)ccc1-c1cc2cc(C3CCCC3)ccc2o1` [Reference Compound 47, 1-((4-(5-cyclopentylbenzofuran-2-yl)-3-methoxyphenyl)methyl)azetidine-3-carboxylic acid]: the response was half-maximal at 1.07 µM (EC50).
The molecule `O=C(O)C1CN(Cc2cc(F)c(-c3cc4cc(Cc5ccccc5)ccc4o3)c(F)c2)C1` [Reference Compound 48, 1-((4-(5-Benzylbenzofuran-2-yl)-3,5-difluorophenyl)methyl)azetidine-3-carboxylic acid] came in with an EC50 of 0.089 µM.
Turning to `O=C(O)C1CN(Cc2ccc(-c3cc4cc(OCC5CC5)ccc4o3)c(F)c2)C1` [Reference Compound 49], the EC50 amounted to 0.109 µM.
Then `CCCCOc1ccc2oc(-c3ccc(CN4CC(C(=O)O)C4)cc3Cl)cc2c1` [Reference Compound 50, 1-((4-(5-Butoxybenzofuran-2-yl)-3-chlorophenyl)methyl)azetidine-3-carboxylic acid], with 0.266 µM; and `O=C(O)C1CN(Cc2ccc(-c3cc4cc(C5CCCC5)ccc4o3)c(Cl)c2)C1` [Reference Compound 51, 1-((3-chloro-4-(5-cyclopentylbenzofuran-2-yl)phenyl)methyl)azetidine-3-carboxylic acid], with 0.558 µM.
On to `O=C(O)C1CN(Cc2ccc(-c3cc4cc(N5CCOCC5)ccc4o3)c(F)c2)C1` [Reference Compound 53, 1-((3-fluoro-4-(5-morpholinobenzofuran-2-yl)phenyl)methyl)azetidine-3-carboxylic acid], for which the 50% effective concentration (EC50) was determined as 2.09 µM.
In turn, `O=C(O)C1CN(Cc2ccc(-c3cc4cc(Cc5ccccc5)ccc4o3)c(F)c2)CCO1` (stereo not drawn) [Reference Compound 54, 4-((4-(5-benzylbenzofuran-2-yl)-3-fluorophenyl)methyl)morpholine-2-carboxylic acid] returned a 50% effective concentration (EC50) of 1.86 µM.
In the case of `O=C(O)C1CN(Cc2ccc(-c3cc4cc(OCC5CCCC5)ccc4o3)c(F)c2)CCO1` (stereo not drawn) [Reference Compound 55, 4-((4-(5-(cyclopentylmethoxy)benzofuran-2-yl)-3-fluorophenyl)methyl)morpholine-2-carboxylic acid], the EC50 is greater than 25 µM.
`O=C(O)CCN1CCc2cc(-c3cc4cc(OCC5CCCC5)ccc4o3)ccc2C1` [Reference Compound 57, 3-(6-(5-(cyclopentylmethoxy)benzofuran-2-yl)-3,4-dihydroisoquinolin.2(1H)-yl)propanoic acid]: the EC50 came out at 0.877 µM.
In turn, `O=C(O)CCNCc1ccc(-c2cc3cc(C4CCCC4)ccc3o2)c(F)c1` [Reference Compound 58, 3-(4-(5-cyclopentylbenzofuran-2-yl)-3-fluorobenzylamino)propanoic acid] gave an EC50 of 1.07 µM.
In the case of `O=C(O)C1CN(Cc2ccc(-c3cc4cc(C5CCOCC5)ccc4o3)c(F)c2)C1` [Reference Compound 61], the EC50 amounted to 0.207 µM.
In turn, `O=C(O)[C@@H]1CCCN(Cc2ccc(-c3cc4cc(Cc5ccccc5)ccc4o3)c(F)c2)C1` [Reference Compound 62, (3R)-1-((4-(5-Benzylbenzofuran-2-yl)-3-fluorophenyl)methyl)piperidine-3-carboxylic acid] came in with an EC50 of 5.45 µM.
As for `O=C(O)[C@H]1CCCN(Cc2ccc(-c3cc4cc(Cc5ccccc5)ccc4o3)c(F)c2)C1` [Reference Compound 63, (3S)-1-((4-(5-Benzylbenzofuran-2-yl)-3-fluorophenyl)methyl)piperidine-3-carboxylic acid], the figure is 3.34 µM.
